Like-named read-outs stand apart in the source and are kept apart here.
Columns and labels:
Assay in all cases: Kinase selectivity, scanMAX Kinase assay panel (DiscoverX), % control at 1 uM
Format in all cases: binding
[1] = target: T1, scanMAX Kinase assay panel (Homo sapiens, UniProt Q16288); conditions: TRKC; 1 uM; read-out: Percent Control (%)
T1 construct: purchased DiscoverX
In short: (§1)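 Each kinase was first exposed to the test compound at 1 uM in DMSO. Signal was then normalised to positive and negative controls to give % control. Finally, any enzyme showing <35% control was judged inhibited.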

[2] = target: T2, scanMAX Kinase assay panel (Homo sapiens, UniProt P21802); conditions: FGFR2; 1 uM; read-out: Percent Control (%)
T2 construct: purchased DiscoverX
T2 sequence (P21802 22-821): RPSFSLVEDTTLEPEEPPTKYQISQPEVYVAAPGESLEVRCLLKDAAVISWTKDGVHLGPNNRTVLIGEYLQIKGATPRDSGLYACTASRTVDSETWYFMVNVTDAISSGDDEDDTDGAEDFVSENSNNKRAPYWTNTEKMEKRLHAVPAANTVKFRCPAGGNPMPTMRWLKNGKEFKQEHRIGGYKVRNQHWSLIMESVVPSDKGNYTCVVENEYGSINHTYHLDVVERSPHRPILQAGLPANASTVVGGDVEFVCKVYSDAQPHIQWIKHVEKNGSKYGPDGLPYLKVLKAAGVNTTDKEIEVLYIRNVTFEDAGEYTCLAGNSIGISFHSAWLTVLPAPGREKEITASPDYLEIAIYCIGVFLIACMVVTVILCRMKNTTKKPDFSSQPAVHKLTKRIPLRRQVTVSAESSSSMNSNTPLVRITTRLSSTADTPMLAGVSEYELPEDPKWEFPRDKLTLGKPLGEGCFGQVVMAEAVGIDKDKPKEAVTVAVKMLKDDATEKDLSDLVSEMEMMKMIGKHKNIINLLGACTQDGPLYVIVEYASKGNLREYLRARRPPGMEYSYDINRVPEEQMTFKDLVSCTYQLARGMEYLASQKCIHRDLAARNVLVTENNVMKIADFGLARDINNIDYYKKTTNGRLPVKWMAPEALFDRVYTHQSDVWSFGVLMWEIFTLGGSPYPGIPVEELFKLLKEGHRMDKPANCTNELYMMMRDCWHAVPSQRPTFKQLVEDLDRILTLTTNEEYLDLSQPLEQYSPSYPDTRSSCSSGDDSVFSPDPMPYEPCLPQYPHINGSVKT
In short: as §1

[3] = target: T3, scanMAX Kinase assay panel (Homo sapiens, UniProt P51812); conditions: 1 uM, read-out: Percent Control (%)
T3 construct: purchased DiscoverX
In short: as §1

[4] = target: T4, scanMAX Kinase assay panel (Homo sapiens, UniProt Q96L34); conditions: MARK4; 1 uM; read-out: Percent Control (%)
T4 construct: purchased DiscoverX
T4 sequence (Q96L34 1-752): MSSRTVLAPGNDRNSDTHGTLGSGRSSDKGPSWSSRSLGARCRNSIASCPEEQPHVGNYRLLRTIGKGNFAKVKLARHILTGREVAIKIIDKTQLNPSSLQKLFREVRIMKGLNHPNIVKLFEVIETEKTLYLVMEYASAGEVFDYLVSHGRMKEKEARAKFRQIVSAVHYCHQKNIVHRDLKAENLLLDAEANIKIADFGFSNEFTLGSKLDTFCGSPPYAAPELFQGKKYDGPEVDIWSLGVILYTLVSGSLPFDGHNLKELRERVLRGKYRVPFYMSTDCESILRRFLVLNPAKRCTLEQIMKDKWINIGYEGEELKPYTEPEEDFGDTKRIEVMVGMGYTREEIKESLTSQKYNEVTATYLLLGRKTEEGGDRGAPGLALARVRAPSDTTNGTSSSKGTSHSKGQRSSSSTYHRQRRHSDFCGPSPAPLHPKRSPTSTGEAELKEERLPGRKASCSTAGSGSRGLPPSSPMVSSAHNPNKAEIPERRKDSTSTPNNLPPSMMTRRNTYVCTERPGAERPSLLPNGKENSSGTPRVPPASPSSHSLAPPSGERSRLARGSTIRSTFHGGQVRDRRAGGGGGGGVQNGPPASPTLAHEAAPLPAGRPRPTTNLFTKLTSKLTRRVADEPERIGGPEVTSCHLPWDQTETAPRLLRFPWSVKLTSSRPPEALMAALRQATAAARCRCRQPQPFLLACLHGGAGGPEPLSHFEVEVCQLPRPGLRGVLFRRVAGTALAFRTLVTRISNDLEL
In short: as §1

[5] = target: T5, scanMAX Kinase assay panel (Homo sapiens, UniProt O14578); conditions: CIT; 1 uM; read-out: Percent Control (%)
T5 construct: purchased DiscoverX
T5 sequence (O14578 whole entry): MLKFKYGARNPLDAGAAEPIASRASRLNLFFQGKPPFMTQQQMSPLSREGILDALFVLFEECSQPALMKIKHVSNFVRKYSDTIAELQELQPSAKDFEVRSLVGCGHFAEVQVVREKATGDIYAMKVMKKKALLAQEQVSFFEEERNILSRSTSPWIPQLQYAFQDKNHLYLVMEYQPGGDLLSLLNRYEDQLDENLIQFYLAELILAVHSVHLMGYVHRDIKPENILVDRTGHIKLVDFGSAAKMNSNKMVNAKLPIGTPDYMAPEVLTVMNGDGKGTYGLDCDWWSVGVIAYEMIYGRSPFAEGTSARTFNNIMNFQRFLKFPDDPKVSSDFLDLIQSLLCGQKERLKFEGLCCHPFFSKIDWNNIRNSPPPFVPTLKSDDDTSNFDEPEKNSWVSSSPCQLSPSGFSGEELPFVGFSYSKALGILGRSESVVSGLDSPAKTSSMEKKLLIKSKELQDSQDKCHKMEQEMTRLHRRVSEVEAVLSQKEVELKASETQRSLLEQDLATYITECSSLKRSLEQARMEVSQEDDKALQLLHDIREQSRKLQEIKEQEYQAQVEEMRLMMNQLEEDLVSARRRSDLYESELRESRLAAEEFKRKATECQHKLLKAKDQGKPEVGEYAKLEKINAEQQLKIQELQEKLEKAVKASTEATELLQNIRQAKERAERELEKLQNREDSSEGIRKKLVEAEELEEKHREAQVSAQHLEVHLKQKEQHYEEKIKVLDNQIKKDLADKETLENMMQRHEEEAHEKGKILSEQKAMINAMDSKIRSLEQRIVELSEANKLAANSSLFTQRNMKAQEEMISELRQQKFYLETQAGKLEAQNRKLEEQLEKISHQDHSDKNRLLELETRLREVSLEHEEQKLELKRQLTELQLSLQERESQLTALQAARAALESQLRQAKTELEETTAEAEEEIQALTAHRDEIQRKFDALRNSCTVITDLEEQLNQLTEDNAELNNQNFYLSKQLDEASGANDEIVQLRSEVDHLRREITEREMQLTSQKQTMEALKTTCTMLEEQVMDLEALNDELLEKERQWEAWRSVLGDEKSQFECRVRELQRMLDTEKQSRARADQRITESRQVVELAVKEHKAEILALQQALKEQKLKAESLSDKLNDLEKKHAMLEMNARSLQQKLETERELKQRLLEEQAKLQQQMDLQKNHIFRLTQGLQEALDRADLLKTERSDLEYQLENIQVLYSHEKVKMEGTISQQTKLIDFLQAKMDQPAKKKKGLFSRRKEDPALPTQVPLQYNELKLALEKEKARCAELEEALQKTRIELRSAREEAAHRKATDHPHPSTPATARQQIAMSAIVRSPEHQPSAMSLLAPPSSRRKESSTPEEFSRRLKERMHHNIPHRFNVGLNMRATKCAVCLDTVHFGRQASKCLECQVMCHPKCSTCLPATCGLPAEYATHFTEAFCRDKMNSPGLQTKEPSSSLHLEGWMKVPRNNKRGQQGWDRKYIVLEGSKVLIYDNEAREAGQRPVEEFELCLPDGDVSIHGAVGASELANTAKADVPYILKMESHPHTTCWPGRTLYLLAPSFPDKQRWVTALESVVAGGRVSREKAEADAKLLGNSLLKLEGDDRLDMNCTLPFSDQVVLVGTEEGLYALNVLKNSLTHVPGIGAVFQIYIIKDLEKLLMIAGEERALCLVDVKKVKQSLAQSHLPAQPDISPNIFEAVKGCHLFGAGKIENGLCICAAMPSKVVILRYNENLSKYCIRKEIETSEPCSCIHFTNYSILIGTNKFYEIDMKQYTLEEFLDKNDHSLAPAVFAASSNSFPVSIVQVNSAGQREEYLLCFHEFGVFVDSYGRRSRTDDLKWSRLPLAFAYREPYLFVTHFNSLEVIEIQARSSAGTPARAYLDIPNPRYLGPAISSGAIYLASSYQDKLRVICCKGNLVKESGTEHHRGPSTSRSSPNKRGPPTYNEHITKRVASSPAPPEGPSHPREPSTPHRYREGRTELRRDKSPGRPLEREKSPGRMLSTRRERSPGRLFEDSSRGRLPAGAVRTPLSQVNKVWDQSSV
In short: as §1

[6] = target: T6, scanMAX Kinase assay panel (Homo sapiens, UniProt Q9Y243); conditions: AKT3; 1 uM; read-out: Percent Control (%)
T6 construct: purchased DiscoverX
In short: as §1

[7] = target: T7, scanMAX Kinase assay panel (Homo sapiens, UniProt P42336, Q546K); conditions: PIK3CA (Q546K); 1 uM; read-out: Percent Control (%)
T7 construct: purchased DiscoverX
T7 sequence (P42336 whole entry Q546K): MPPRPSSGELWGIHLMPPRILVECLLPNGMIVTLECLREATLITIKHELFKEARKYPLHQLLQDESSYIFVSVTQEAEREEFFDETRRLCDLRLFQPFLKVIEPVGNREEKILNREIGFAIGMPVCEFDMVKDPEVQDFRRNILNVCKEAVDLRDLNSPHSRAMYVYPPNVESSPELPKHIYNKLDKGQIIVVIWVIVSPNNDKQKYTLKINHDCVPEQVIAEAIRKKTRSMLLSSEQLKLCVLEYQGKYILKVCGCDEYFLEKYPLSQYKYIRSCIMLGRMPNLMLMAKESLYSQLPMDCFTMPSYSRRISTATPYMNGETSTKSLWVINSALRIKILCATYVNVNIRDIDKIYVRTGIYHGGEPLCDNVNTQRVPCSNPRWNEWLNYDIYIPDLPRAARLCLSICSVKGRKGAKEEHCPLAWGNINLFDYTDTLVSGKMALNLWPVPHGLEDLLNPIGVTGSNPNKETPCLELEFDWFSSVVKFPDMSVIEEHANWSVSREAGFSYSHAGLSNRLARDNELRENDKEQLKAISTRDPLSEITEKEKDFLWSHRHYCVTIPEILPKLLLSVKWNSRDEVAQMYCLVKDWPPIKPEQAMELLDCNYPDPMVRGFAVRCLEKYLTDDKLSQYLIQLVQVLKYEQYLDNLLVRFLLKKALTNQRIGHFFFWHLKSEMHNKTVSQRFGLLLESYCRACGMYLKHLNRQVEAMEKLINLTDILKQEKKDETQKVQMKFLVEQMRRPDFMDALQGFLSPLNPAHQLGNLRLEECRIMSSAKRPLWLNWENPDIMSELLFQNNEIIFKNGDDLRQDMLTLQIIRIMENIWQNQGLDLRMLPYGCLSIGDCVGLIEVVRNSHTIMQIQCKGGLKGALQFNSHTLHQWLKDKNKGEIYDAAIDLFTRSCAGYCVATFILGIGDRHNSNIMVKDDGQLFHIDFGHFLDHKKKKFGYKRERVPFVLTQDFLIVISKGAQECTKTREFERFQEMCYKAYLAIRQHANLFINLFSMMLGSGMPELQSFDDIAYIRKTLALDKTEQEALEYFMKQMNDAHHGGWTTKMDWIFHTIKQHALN
In short: as §1

[8] = tested on: scanMAX Kinase assay panel; conditions: 1 uM
In short: as §1

[9] = target: T8, scanMAX Kinase assay panel (Mycobacterium tuberculosis, UniProt P9WI81); conditions: read-out: Percent Control (%)
T8 construct: purchased DiscoverX
In short: as §1

[10] = target: T9, scanMAX Kinase assay panel (Homo sapiens, UniProt O75460); conditions: ERN1; 1 uM; read-out: Percent Control (%)
T9 construct: purchased DiscoverX
In short: as §1

[11] = target: T10, scanMAX Kinase assay panel (Homo sapiens, UniProt P36888, D835Y); conditions: FLT3 (D835Y); 1 uM; read-out: Percent Control (%)
T10 construct: purchased DiscoverX
T10 sequence (P36888 27-993 D835Y): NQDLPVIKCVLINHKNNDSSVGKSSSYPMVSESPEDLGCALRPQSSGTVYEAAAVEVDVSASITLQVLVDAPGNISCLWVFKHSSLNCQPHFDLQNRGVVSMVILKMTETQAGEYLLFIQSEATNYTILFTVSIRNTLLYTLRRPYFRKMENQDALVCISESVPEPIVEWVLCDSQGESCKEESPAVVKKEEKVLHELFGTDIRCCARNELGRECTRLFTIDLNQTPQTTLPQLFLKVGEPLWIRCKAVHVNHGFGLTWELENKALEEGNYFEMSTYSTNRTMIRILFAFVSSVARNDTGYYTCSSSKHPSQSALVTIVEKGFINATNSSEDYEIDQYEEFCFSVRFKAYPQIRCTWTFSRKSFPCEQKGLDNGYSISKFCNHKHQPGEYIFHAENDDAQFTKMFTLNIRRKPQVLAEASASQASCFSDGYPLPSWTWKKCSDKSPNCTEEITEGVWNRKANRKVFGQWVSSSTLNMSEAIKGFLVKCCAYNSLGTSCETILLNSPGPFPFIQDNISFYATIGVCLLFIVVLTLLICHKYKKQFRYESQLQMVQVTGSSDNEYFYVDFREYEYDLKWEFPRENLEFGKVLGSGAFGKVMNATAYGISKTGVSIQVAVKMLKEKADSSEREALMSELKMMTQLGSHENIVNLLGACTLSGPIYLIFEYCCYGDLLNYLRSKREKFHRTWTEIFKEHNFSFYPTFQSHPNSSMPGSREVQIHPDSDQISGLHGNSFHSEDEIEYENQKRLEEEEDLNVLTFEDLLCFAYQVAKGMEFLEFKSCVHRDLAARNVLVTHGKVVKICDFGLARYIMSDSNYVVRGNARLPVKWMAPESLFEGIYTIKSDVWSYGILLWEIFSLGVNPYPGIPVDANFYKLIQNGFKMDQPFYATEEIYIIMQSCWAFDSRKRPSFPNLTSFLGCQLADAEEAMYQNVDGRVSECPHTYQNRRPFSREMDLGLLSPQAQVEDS
In short: as §1

T1 sequence (Q16288 32-839): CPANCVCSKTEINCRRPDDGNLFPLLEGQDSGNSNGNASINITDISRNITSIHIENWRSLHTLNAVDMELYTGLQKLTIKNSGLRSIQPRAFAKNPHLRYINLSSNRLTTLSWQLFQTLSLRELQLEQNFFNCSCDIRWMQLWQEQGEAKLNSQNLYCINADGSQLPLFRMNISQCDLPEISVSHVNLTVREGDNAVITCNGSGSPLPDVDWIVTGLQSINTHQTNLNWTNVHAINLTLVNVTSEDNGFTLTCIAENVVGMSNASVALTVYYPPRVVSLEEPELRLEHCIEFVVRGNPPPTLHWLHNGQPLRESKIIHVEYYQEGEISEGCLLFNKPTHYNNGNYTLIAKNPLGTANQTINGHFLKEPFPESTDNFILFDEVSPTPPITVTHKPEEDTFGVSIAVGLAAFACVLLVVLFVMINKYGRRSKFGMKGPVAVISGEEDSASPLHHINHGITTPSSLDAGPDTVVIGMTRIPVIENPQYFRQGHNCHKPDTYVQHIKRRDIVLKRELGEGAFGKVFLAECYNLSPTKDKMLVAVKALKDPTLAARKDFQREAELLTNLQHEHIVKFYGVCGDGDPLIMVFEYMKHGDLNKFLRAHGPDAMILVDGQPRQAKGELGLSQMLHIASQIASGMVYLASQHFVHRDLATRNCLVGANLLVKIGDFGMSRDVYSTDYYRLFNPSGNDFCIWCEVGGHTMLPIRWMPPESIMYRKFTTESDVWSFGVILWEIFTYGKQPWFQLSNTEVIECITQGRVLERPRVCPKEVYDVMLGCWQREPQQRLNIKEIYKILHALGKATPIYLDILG

Compound Cc1ccc(C(=O)Nc2ccc(CN3CCN(C)CC3)c(C(F)(F)F)c2)cc1C#Cc1cnc2c(Nc3cnn(C)c3)cccn12 [Example 1, 4-methyl-3-((8-((1-methyl-1H-pyrazol-4-yl)amino)imidazo[1,2-a]pyridin-3-yl)ethynyl)-N-(4-((4-methylpiperazin-1-yl)methyl)-3-(trifluoromethyl)phenyl)benzamide] has a remaining binding at 1 µM [1] of 0%, a remaining binding at 1 µM [2] of 2% and a remaining binding at 1 µM ([3]; RSK2 (Kin.Dom.1-N-terminal)) of 35%. It also gave a remaining binding at 1 µM ([3]; RSK2 (Kin.Dom.2-C-terminal)) of 93%, a remaining binding at 1 µM [4] of 100% and a remaining binding at 1 µM [5] of 0%. For the same compound, the remaining binding at 1 µM [6] was 99%, the remaining binding at 1 µM [7] was 83% and the “Percent Control (%)” value ([8]; EGFR (L747-E749del, A750P)) was 3%. The “Percent Control (%)” value ([8]; EGFR (L747-S752del, P753S)) was 1%, the “Percent Control (%)” value ([8]; EGFR (L747-T751del, Sins)) was 2% and the “Percent Control (%)” value ([8]; FLT3 (ITD)) was 1%. For the same compound, the “Percent Control (%)” value ([8]; FLT3 (ITD, D835V)) was 20%, the “Percent Control (%)” value ([8]; FLT3 (ITD, F691L)) was 2% and the remaining binding at 1 µM [9] was 95%. The remaining binding at 1 µM [10] was 62% and the remaining binding at 1 µM [11] was 5%.

In the case of Cc1cn(-c2cc(NC(=O)c3ccc(C)c(C#Cc4cnc5c(Nc6cnn(C)c6)cccn45)c3)cc(C(F)(F)F)c2)cn1 [Example 12, 4-methyl-N-(3-(4-methyl-1H-imidazol-1-yl)-5-(trifluoromethyl)phenyl)-3-((8-((1-methyl-1H-pyrazol-4-yl)amino)imidazo[1,2-a]pyridin-3-yl)ethynyl)benzamide], the remaining binding at 1 µM [1] is reported as 3%, the remaining binding at 1 µM [2] is reported as 11% and the remaining binding at 1 µM ([3]; RSK2 (Kin.Dom.1-N-terminal)) is reported as 100%. It also gave a remaining binding at 1 µM ([3]; RSK2 (Kin.Dom.2-C-terminal)) of 94%, a remaining binding at 1 µM [4] of 86% and a remaining binding at 1 µM [5] of 0%. The remaining binding at 1 µM [6] was 99%, the remaining binding at 1 µM [7] was 100% and the “Percent Control (%)” value ([8]; EGFR (L747-E749del, A750P)) was 5%. The “Percent Control (%)” value ([8]; EGFR (L747-S752del, P753S)) was 6%, the “Percent Control (%)” value ([8]; EGFR (L747-T751del, Sins)) was 6% and the “Percent Control (%)” value ([8]; FLT3 (ITD)) was 4%. For the same compound, the “Percent Control (%)” value ([8]; FLT3 (ITD, D835V)) was 100%, the “Percent Control (%)” value ([8]; FLT3 (ITD, F691L)) was 45% and the remaining binding at 1 µM [9] was 100%. The remaining binding at 1 µM [10] was 100% and the remaining binding at 1 µM [11] was 14%.

With Cc1ccc(NC(=O)C2(C(=O)Nc3ccc(F)cc3)CC2)cc1C#Cc1cnc2c(Nc3cnn(C(C)C)c3)cccn12 [Example 78] the remaining binding at 1 µM [1] was 96%, the remaining binding at 1 µM [2] was 100% and the remaining binding at 1 µM ([3]; RSK2 (Kin.Dom.1-N-terminal)) was 99%. For the same compound, the remaining binding at 1 µM ([3]; RSK2 (Kin.Dom.2-C-terminal)) was 81%, the remaining binding at 1 µM [4] was 97% and the remaining binding at 1 µM [5] was 100%. The remaining binding at 1 µM [6] was 95%, the remaining binding at 1 µM [7] was 89% and the “Percent Control (%)” value ([8]; EGFR (L747-E749del, A750P)) was 100%. For the same compound, the “Percent Control (%)” value ([8]; EGFR (L747-S752del, P753S)) was 87%, the “Percent Control (%)” value ([8]; EGFR (L747-T751del, Sins)) was 100% and the “Percent Control (%)” value ([8]; FLT3 (ITD)) was 71%. For the same compound, the “Percent Control (%)” value ([8]; FLT3 (ITD, D835V)) was 35%, the “Percent Control (%)” value ([8]; FLT3 (ITD, F691L)) was 31% and the remaining binding at 1 µM [9] was 97%. The remaining binding at 1 µM [10] was 97% and the remaining binding at 1 µM [11] was 79%.
